From patent US11485742B2, “2-azaspiro[3.4]octane derivatives as M4 agonists” (NOVARTIS AG, priority 2019, dated 2022) come the findings set out here.

Experiment [1] concerns the target T1, human cloned CHRM2 receptor (Homo sapiens, UniProt P08172).
T1 construct: expressed in transfected cells; host or cells: CHO-K1 (M2_CHO)
T1 sequence (P08172 1-466): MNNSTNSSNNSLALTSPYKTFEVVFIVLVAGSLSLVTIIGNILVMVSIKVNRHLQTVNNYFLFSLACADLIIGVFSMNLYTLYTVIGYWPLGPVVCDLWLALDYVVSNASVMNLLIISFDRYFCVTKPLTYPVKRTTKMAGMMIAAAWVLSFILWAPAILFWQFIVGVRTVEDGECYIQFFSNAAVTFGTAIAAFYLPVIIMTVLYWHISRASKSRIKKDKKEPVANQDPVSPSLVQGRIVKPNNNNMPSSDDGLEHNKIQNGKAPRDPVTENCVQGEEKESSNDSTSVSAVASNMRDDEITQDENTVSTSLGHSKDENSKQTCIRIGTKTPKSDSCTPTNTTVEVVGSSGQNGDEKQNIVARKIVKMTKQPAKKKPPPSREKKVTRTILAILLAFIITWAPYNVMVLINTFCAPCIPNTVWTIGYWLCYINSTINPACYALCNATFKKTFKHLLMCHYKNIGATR
Briefly: CHRM2 Ca++ Flux Assay (M2_CHO cells, agonist mode). The class given is cell-based. The settings on record: M2 CHO cells; for EC50: agonist mode, geometric mean if tested more than once, read-out: M2 FDSS EC50; for Emax: Percent Activity (PA) measured to EC100 of Carbachol, read-out: M2 FDSS PA %. The essentials:
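Agonist activity was expressed as percent of the carbachol EC100 response, fitted by four-parameter regression on triplicate wells, with geometric means across repeat runs. Calcium traces over 3 minutes came from dye-loaded M2_CHO cells (12K/well) pre-incubated 60 min in Ca/Mg-free HBSS with 20 mM HEPES, 2.5 mM probenecid and 20 μM ATP.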

The target of experiment [2] is T2, human cloned CHRM5 receptor (Homo sapiens, UniProt P08912).
T2 construct: expressed in transfected cells; host or cells: CHO (M5_CHO)
T2 sequence (P08912 1-532): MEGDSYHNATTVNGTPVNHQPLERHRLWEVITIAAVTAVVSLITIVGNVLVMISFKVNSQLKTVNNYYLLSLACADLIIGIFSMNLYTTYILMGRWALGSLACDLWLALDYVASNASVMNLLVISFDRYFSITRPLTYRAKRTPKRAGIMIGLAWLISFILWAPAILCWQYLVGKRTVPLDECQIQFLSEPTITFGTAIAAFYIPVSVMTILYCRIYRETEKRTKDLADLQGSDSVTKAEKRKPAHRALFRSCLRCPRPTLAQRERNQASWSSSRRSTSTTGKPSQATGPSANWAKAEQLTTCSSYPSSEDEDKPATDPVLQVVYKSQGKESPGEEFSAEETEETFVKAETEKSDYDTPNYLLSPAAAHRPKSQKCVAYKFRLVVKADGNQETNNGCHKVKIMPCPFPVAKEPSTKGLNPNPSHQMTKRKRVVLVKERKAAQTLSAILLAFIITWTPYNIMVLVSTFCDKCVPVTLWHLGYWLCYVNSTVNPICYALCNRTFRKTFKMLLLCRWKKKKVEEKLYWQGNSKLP
The experiment can be described thus: CHRM5 Ca++ Flux Assay (M5_CHO cells, agonist mode). The class given is cell-based. The settings on record: for Emax: Percent Activity (PA) measured to EC100 of Carbachol, read-out: M5 FDSS PA %; for EC50: agonist mode, geometric mean if tested more than once, read-out: M5 FDSS EC50. The essentials: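 Agonist-mode calcium mobilisation: compounds, 11 concentrations in triplicate, applied to stable M3_CHO or M5_CHO cells loaded with Ca++ dye, fluorescence followed 3 min. Efficacy expressed against carbachol EC100; EC curves by four-parameter nonlinear regression, geometric mean across independent runs.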

The EC50 is the concentration needed to bring the measured effect to its halfway point. As for `Fc1ccc(OC2CC3(COC3)C2)c(C2CCN([C@@H]3COC4(C3)CN(c3nnco3)C4)CC2)c1` [Example 2L, (S)-7-(4-(2-((2-oxaspiro[3.3]heptan-6-yl)oxy)-5-fluorophenyl)piperidin-1-yl)-2-(1,3,4-oxadiazol-2-yl)-5-oxa-2-azaspiro[3.4]octane], the results for the EC50 in experiment [1] and in experiment [2] were 1070 nM and more than 25000 nM, respectively. Besides, the Emax in experiment [1] stood at 14%; in experiment [2] it was 0%.
For `Fc1ccc(OCC2COC2)c(C2CCN([C@@H]3COC4(C3)CN(c3nnco3)C4)CC2)c1` [Example 2H, (S)-7-(4-(5-fluoro-2-(oxetan-3-ylmethoxy)phenyl)piperidin-1-yl)-2-(1,3,4-oxadiazol-2-yl)-5-oxa-2-azaspiro[3.4]octane] the same measures were 309 nM, more than 25000 nM, 60% and 0%.
As to `Fc1ccc(OCC2COC2)c(C2CCN([C@@H]3COC4(C3)CN(c3nncs3)C4)CC2)c1` [Example 2A, (S)-7-(4-(5-fluoro-2-(oxetan-3-ylmethoxy)phenyl)piperidin-1-yl)-2-(1,3,4-thiadiazol-2-yl)-5-oxa-2-azaspiro[3.4]octane], in experiment [1], the EC50 worked out at 520 nM and the Emax came to 46%. In experiment [2], the Emax was found to be 0% and the EC50 is more than 25000 nM.
For `CCc1nnc(COc2ccc(F)cc2C2CCN([C@@H]3COC4(C3)CN(c3nnco3)C4)CC2)s1` [Example 2T, (S)-7-(4-(2-((5-ethyl-1,3,4-thiadiazol-2-yl)methoxy)-5-fluorophenyl)piperidin-1-yl)-2-(1,3,4-oxadiazol-2-yl)-5-oxa-2-azaspiro[3.4]octane] the same measures were 41 nM, 44%, 0% and 730 nM.
For `Cc1nnc(COc2ccc(F)cc2C2CCN([C@@H]3COC4(C3)CN(c3nnco3)C4)CC2)o1` [Example 2F, (S)-7-(4-(5-fluoro-2-((5-methyl-1,3,4-oxadiazol-2-yl)methoxy)phenyl)piperidin-1-yl)-2-(1,3,4-oxadiazol-2-yl)-5-oxa-2-azaspiro[3.4]octane] the same measures were 113 nM, 67%, 30% and 3650 nM.
On the same counts, the results for `CC(C)(O)COc1ccccc1C1CCN([C@@H]2COC3(C2)CN(c2ncns2)C3)CC1` [Example 5Y, (S)-1-(2-(1-(2-(1,2,4-thiadiazol-5-yl)-5-oxa-2-azaspiro[3.4]octan-7-yl)piperidin-4-yl)phenoxy)-2-methylpropan-2-ol] are more than 25000 nM, 0%, 0% and more than 25000 nM.
`c1ccc(C2CCN([C@@H]3COC4(C3)CN(c3nnco3)C4)CC2)c(O[C@@H]2CCOC2)c1` [Example 1O, (S)-2-(1,3,4-oxadiazol-2-yl)-7-(4-(2-(((R)-tetrahydrofuran-3-yl)oxy)phenyl)piperidin-1-yl)-5-oxa-2-azaspiro[3.4]octane]: the EC50 in experiment [1] is 611 nM; in experiment [2], more than 25000 nM. Also, the Emax came out at 36% in experiment [1] and 0% in experiment [2].
As for `c1ccc(C2CCN([C@@H]3COC4(C3)CN(c3nnco3)C4)CC2)c(OC2COC2)c1` [Example 1P, (S)-2-(1,3,4-oxadiazol-2-yl)-7-(4-(2-(oxetan-3-yloxy)phenyl)piperidin-1-yl)-5-oxa-2-azaspiro[3.4]octane], the EC50 was 1090 nM in experiment [1] and more than 25000 nM in experiment [2]. The values for the Emax in experiment [1] and in experiment [2] were 51% and 0%, respectively.
For `OC1(COc2ccc(F)cc2C2CCN([C@@H]3COC4(C3)CN(c3nnco3)C4)CC2)COC1` [Example 2U, (S)-3-((2-(1-(2-(1,3,4-oxadiazol-2-yl)-5-oxa-2-azaspiro[3.4]octan-7-yl)piperidin-4-yl)-4-fluorophenoxy)methyl)oxetan-3-ol] the same measures were 275 nM, more than 25000 nM, 51% and 0%.
For `CC(C)(O)CCOc1cc(F)ccc1C1CCN([C@@H]2COC3(C2)CN(c2nnco2)C3)CC1` [Example 1T, (S)-4-(2-(1-(2-(1,3,4-oxadiazol-2-yl)-5-oxa-2-azaspiro[3.4]octan-7-yl)piperidin-4-yl)-5-fluorophenoxy)-2-methylbutan-2-ol] the same measures were more than 25000 nM, more than 25000 nM, 0% and 0%.
On the same counts, the results for `Cc1nnc(COc2ccc(F)cc2C2CCN([C@@H]3COC4(C3)CN(c3nnco3)C4)CC2)s1` [Example 2E, (S)-7-(4-(5-fluoro-2-((5-methyl-1,3,4-thiadiazol-2-yl)methoxy)phenyl)piperidin-1-yl)-2-(1,3,4-oxadiazol-2-yl)-5-oxa-2-azaspiro[3.4]octane] are 81 nM, 1670 nM, 59% and 23%.
In the case of `Fc1ccc(OC[C@H]2CCOC2)c(C2CCN([C@@H]3COC4(C3)CN(c3nnco3)C4)CC2)c1` [Example 1I, (S)-7-(4-(5-fluoro-2-(((S)-tetrahydrofuran-3-yl)methoxy)phenyl)piperidin-1-yl)-2-(1,3,4-oxadiazol-2-yl)-5-oxa-2-azaspiro[3.4]octane], in experiment [1], the EC50 came out at 531 nM and the Emax is 32%. In experiment [2], the Emax came to 0% and the EC50 is more than 25000 nM.
In the case of `Fc1ccc(OC2CCOCC2)c(C2CCN([C@@H]3COC4(C3)CN(c3ncon3)C4)CC2)c1` [Example 6A, (S)-7-(4-(5-fluoro-2-((tetrahydro-2H-pyran-4-yl)oxy)phenyl)piperidin-1-yl)-2-(1,2,4-oxadiazol-3-yl)-5-oxa-2-azaspiro[3.4]octane], the EC50 in experiment [1] is 623 nM; in experiment [2] it was more than 25000 nM. Besides, the Emax in experiment [1] is 18%; in experiment [2], 0%.
For `CC1(COc2ccc(F)cc2C2CCN([C@@H]3COC4(C3)CN(c3nnco3)C4)CC2)COC1` [Example 2K, (S)-7-(4-(5-fluoro-2-((3-methyloxetan-3-yl)methoxy)phenyl)piperidin-1-yl)-2-(1,3,4-oxadiazol-2-yl)-5-oxa-2-azaspiro[3.4]octane], in experiment [1], the EC50 was 498 nM and the Emax amounted to 47%. In addition, in experiment [2], the Emax is 0% and the EC50 is more than 25000 nM.
In the case of `COc1cc(F)ccc1C1CCN([C@@H]2COC3(C2)CN(c2nnco2)C3)CC1` [Example 1S, (S)-7-(4-(4-fluoro-2-methoxyphenyl)piperidin-1-yl)-2-(1,3,4-oxadiazol-2-yl)-5-oxa-2-azaspiro[3.4]octane], the EC50 in experiment [1] was 656 nM; in experiment [2] it was more than 25000 nM. The results for the Emax in experiment [1] and in experiment [2] were 13% and 0%, respectively.
